# Measurements taken from ChEMBL document CHEMBL4033735, “A potent and selective natriuretic peptide receptor-3 blocker 11-mer peptide created by hybridization of musclin and atrial natriuretic peptide” (Bioorg Med Chem Lett, 2017).
# Square brackets hold non-standard residues; d marks the D form. Peptide text beside a SMILES is read from it. Cha = N[C@@H](CC1CCCCC1)C(=O)O
# What was measured:
# [1] = target: T1, Atrial natriuretic peptide receptor 1 (Homo sapiens, UniProt P16066); assay: Displacement of [125I]-human ANP from human NPR-1 incubated for 2 hrs by top count method
# T1 sequence (P16066 whole entry): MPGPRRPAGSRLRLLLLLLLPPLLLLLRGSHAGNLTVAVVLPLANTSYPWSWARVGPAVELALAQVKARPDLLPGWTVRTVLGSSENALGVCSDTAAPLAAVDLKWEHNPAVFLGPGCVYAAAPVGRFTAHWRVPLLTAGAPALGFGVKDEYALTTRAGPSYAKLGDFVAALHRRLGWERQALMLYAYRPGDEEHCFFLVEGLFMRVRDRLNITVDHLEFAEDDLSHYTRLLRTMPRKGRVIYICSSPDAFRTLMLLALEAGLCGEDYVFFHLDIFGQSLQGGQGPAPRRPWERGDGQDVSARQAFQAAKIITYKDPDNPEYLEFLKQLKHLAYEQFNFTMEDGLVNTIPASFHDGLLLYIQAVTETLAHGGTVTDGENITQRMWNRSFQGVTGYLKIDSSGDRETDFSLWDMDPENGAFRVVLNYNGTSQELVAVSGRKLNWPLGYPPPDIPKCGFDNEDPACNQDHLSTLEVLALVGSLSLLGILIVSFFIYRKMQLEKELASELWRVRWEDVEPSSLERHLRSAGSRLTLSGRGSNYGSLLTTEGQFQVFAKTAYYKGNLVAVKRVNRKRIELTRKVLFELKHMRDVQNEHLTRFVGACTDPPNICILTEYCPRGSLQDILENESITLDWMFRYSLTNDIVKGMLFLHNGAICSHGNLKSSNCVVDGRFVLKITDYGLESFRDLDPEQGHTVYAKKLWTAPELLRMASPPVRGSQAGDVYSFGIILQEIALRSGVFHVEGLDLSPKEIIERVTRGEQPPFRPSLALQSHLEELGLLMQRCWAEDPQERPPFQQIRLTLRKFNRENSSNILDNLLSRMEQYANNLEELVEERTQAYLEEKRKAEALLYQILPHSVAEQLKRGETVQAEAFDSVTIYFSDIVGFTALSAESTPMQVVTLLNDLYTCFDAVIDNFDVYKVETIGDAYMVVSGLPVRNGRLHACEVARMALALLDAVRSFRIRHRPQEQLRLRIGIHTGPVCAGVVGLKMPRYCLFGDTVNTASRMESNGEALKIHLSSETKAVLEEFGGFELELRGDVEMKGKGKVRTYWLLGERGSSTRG
# [2] = target: T2, Atrial natriuretic peptide receptor 3 (Homo sapiens, UniProt P17342); assay: Displacement of [125I]-human ANP from His-tagged and Fc fragment containing human NPR-3 extracellular domain expressed in FreeStyle 293 cells incubated for 2 hrs by top count method; format: cell-based
# T2 sequence (P17342 whole entry): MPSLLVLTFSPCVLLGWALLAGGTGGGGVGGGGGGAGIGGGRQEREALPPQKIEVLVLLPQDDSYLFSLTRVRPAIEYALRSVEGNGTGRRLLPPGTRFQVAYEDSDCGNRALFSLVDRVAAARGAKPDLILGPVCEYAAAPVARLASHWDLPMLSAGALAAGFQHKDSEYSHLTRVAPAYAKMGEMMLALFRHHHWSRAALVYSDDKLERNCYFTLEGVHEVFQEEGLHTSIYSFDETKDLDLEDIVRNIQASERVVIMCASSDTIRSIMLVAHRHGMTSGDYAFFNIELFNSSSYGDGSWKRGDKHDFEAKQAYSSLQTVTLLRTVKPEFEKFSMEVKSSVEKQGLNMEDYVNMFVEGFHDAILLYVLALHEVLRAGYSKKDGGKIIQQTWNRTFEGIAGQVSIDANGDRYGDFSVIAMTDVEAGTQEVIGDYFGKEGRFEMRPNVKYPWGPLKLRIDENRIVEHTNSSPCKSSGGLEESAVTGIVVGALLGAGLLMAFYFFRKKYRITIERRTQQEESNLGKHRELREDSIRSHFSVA
# [3] = Stability in 10% C57BL/6J mouse serum/phosphate-buffered saline assessed as residual parent compound remaining at 1 mM after 60 mins at 37 degC by HPLC method; format: ADME, cell-free; details: 10% mouse serum in phosphate-buffered saline, read-out: Stability
# [4] = Stability in 10% C57BL/6J mouse serum/phosphate-buffered saline assessed as residual parent compound remaining at 1 mM after 30 mins at 37 degC by HPLC method; format: ADME, cell-free; details: 10% mouse serum in phosphate-buffered saline, read-out: Stability
Compound,IC50 [1],IC50 [2],"remaining at 1 h, 1000 µM [3]","remaining at 0.5 h, 1000 µM [4]"
CC[C@H](C)[C@H](NC(=O)[C@H](CCCNC(=N)N)NC(=O)[C@H](CC(=O)O)NC(=O)[C@@H](NC(=O)[C@H](CCCNC(=N)N)NC(=O)CNC(=O)CNC(=O)[C@H](CC1CCCCC1)NC(=O)CN)[C@@H](C)CC)C(=O)NCC(N)=O (H-G[Cha]GGRIDRIG-NH2),> 1000 nM,13 nM,–,–
CC[C@H](C)[C@H](NC(=O)[C@H](CCCNC(=N)N)NC(=O)[C@H](CC(=O)O)NC(=O)[C@@H](NC(=O)[C@H](CCCNC(=N)N)NC(=O)CNC(=O)CNC(=O)[C@H](CC1CCCCC1)NC(=O)CNC(=O)[C@H](CO)NC(=O)[C@H](Cc1ccccc1)NC(=O)[C@@H](N)CO)[C@@H](C)CC)C(=O)NCC(N)=O (H-SFSG[Cha]GGRIDRIG-NH2),> 1000 nM,0.52 nM,–,–
CC[C@H](C)[C@H](NC(=O)[C@H](CCCNC(=N)N)NC(=O)[C@H](CC(=O)O)NC(=O)[C@@H](NC(=O)[C@H](CCCNC(=N)N)NC(=O)CNC(=O)CNC(=O)[C@H](CC1CCCCC1)NC(=O)CNC(=O)[C@@H](N)CO)[C@@H](C)CC)C(=O)NCC(N)=O (H-SG[Cha]GGRIDRIG-NH2),> 1000 nM,22 nM,–,–
CC[C@H](C)[C@H](NC(=O)[C@H](CCCNC(=N)N)NC(=O)[C@H](CC(=O)O)NC(=O)[C@@H](NC(=O)[C@H](CCCNC(=N)N)NC(=O)CNC(=O)CNC(=O)[C@H](Cc1ccccc1)NC(=O)[C@H](CS)NC(=O)[C@H](CO)NC(=O)[C@H](CO)NC(=O)[C@@H](N)CCCNC(=N)N)[C@@H](C)CC)C(=O)NCC(=O)N[C@@H](C)C(=O)N[C@@H](CS)C(=O)O (H-RSSCFGGRIDRIGAC-OH),–,0.65 nM,–,–
CC[C@H](C)[C@H](NC(=O)[C@H](CCCNC(=N)N)NC(=O)[C@H](CC(=O)O)NC(=O)[C@@H](NC(=O)[C@H](CCCNC(=N)N)NC(=O)CNC(=O)CNC(=O)[C@H](CC1CCCCC1)NC(=O)CNC(=O)[C@H](CO)NC(=O)[C@H](N)Cc1ccccc1)[C@@H](C)CC)C(=O)NCC(N)=O,> 1000 nM,0.12 nM,80%,100%
CC[C@H](C)[C@H](NC(=O)[C@H](CCCNC(=N)N)NC(=O)[C@H](CC(=O)O)NC(=O)[C@@H](NC(=O)[C@H](CCCNC(=N)N)NC(=O)CNC(=O)CNC(=O)[C@H](CC1CCCCC1)NC(=O)[C@@H](N)CO)[C@@H](C)CC)C(=O)NCC(N)=O (H-S[Cha]GGRIDRIG-NH2),> 1000 nM,15 nM,–,–
CC[C@H](C)[C@H](NC(=O)[C@H](CCCNC(=N)N)NC(=O)[C@H](CC(=O)O)NC(=O)[C@@H](NC(=O)[C@H](CCCNC(=N)N)NC(=O)CNC(=O)CNC(=O)[C@H](CC1CCCCC1)NC(=O)CNC(=O)[C@H](CO)NC(=O)[C@@H](N)Cc1ccccc1)[C@@H](C)CC)C(=O)NCC(N)=O,> 1000 nM,1.2 nM,0%,1.4%
CC[C@H](C)[C@@H]1NC(=O)[C@H](CCCNC(=N)N)NC(=O)[C@H](CC(=O)O)NC(=O)[C@H](CCSC)NC(=O)[C@H](CCCNC(=N)N)NC(=O)CNC(=O)CNC(=O)[C@H](Cc2ccccc2)NC(=O)[C@@H](NC(=O)[C@H](CO)NC(=O)[C@H](CO)NC(=O)[C@H](CCCNC(=N)N)NC(=O)[C@H](CCCNC(=N)N)NC(=O)[C@H](CC(C)C)NC(=O)[C@@H](N)CO)CSSC[C@@H](C(=O)N[C@@H](CC(N)=O)C(=O)N[C@@H](CO)C(=O)N[C@@H](Cc2ccccc2)C(=O)N[C@@H](CCCNC(=N)N)C(=O)N[C@@H](Cc2ccc(O)cc2)C(=O)O)NCC(=O)NC(=O)[C@H](CC(C)C)NC(=O)CNC(=O)[C@H](CO)NC(=O)[C@H](CCC(N)=O)NC(=O)[C@H](C)NC(=O)CNC1=O,0.094 nM,0.058 nM,–,–
CC[C@H](C)[C@H](NC(=O)[C@H](CCCNC(=N)N)NC(=O)[C@H](CC(=O)O)NC(=O)[C@@H](NC(=O)[C@@H]1CCCN1C(=O)CNC(=O)CNC(=O)[C@H](CC1CCCCC1)NC(=O)CNC(=O)[C@H](CO)NC(=O)[C@H](N)Cc1ccccc1)[C@@H](C)CC)C(=O)NCC(N)=O,> 1000 nM,0.12 nM,–,–
CC[C@H](C)[C@H](NC(=O)[C@H](CCCNC(=N)N)NC(=O)[C@H](CC(=O)O)NC(=O)[C@@H](NC(=O)[C@H](CCCNC(=N)N)NC(=O)CNC(=O)CNC(=O)[C@H](CC1CCCCC1)NC(=O)[C@@H](N)CS)[C@@H](C)CC)C(=O)NCC(N)=O (H-C[Cha]GGRIDRIG-NH2),120 nM,1.5 nM,–,–
CC[C@H](C)[C@H](NC(=O)[C@H](CCCNC(=N)N)NC(=O)[C@H](CC(=O)O)NC(=O)[C@@H](NC(=O)[C@H](CCCNC(=N)N)NC(=O)CNC(=O)CNC(=O)[C@H](CC1CCCCC1)NC(=O)CNC(=O)[C@H](CO)NC(=O)[C@@H](Cc1ccccc1)NC(C)=O)[C@@H](C)CC)C(=O)NCC(N)=O,> 1000 nM,0.93 nM,–,–
CC[C@H](C)[C@H](NC(=O)[C@H](CCCNC(=N)N)NC(=O)[C@H](CC(=O)O)NC(=O)[C@@H](NC(=O)[C@H](CCCNC(=N)N)NC(=O)CNC(=O)CNC(=O)[C@H](CC1CCCCC1)NC(=O)[C@H](CS)NC(C)=O)[C@@H](C)CC)C(=O)NCC(N)=O (Ac-C[Cha]GGRIDRIG-NH2),> 1000 nM,35 nM,–,–
CC[C@H](C)[C@H](NC(=O)[C@H](CCCNC(=N)N)NC(=O)[C@H](CC(=O)O)NC(=O)[C@@H](NC(=O)[C@H](CCCNC(=N)N)NC(=O)CNC(=O)CNC(=O)[C@@H](N)CC1CCCCC1)[C@@H](C)CC)C(=O)NCC(N)=O (H-[Cha]GGRIDRIG-NH2),> 1000 nM,11 nM,–,–
CC[C@H](C)[C@H](NC(=O)[C@H](CCCNC(=N)N)NC(=O)[C@H](CC(=O)O)NC(=O)[C@@H](NC(=O)[C@H](CCCNC(=N)N)NC(=O)CNC(=O)CNC(=O)[C@H](CC1CCCCC1)NC(=O)[C@H](C)N)[C@@H](C)CC)C(=O)NCC(N)=O (H-A[Cha]GGRIDRIG-NH2),> 1000 nM,13 nM,–,–
CC[C@H](C)[C@H](NC(=O)[C@H](CCCNC(=N)N)NC(=O)[C@H](CC(=O)O)NC(=O)[C@@H](NC(=O)[C@H](CCCNC(=N)N)NC(=O)CNC(=O)[C@@H](C)NC(=O)[C@H](CC1CCCCC1)NC(=O)CNC(=O)[C@H](CO)NC(=O)[C@H](N)Cc1ccccc1)[C@@H](C)CC)C(=O)NCC(N)=O,> 1000 nM,0.36 nM,–,–
CC[C@H](C)[C@H](NC(=O)[C@H](CCCNC(=N)N)NC(=O)[C@H](CC(=O)O)NC(=O)[C@@H](NC(=O)[C@H](CCCNC(=N)N)NC(=O)CNC(=O)CNC(=O)[C@H](CC1CCCCC1)NC(=O)CNC(=O)[C@H](CO)NC(=O)[C@H](CO)NC(=O)[C@@H](N)CCCNC(=N)N)[C@@H](C)CC)C(=O)NCC(N)=O (H-RSSG[Cha]GGRIDRIG-NH2),> 1000 nM,7.8 nM,–,–
CC[C@H](C)[C@H](NC(=O)[C@H](CCCNC(=N)N)NC(=O)[C@H](CC(=O)O)NC(=O)[C@@H](NC(=O)[C@H](CCCNC(=N)N)NC(=O)CNC(=O)CNC(=O)[C@H](CC1CCCCC1)NC(C)=O)[C@@H](C)CC)C(=O)NCC(N)=O (Ac-[Cha]GGRIDRIG-NH2),> 1000 nM,54 nM,–,–
CC[C@H](C)[C@H](NC(=O)[C@H](CCCNC(=N)N)NC(=O)[C@H](CC(=O)O)NC(=O)[C@@H](NC(=O)[C@@H]1CCCN1C(=O)CNC(=O)[C@@H](C)NC(=O)[C@H](CC1CCCCC1)NC(=O)[C@H]1CCCN1C(=O)[C@H](CO)NC(=O)[C@@H](Cc1ccccc1)NC(C)=O)[C@@H](C)CC)C(=O)NCC(N)=O,> 1000 nM,0.19 nM,–,–
